This passage reports TGI results from PubChem BioAssay (NCI).

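Results reflect a 48-hour exposure of cells in 96-well plates to compound at five concentrations. At the TGI there is no net growth.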

What all share (assay): NCI tumour cell line growth inhibition, 48 h
Assay [1] deals with U251 CNS.
The subject of assay [2] is 786-0 renal.
The test system of assay [3] is SK-MEL-2 melanoma.
Assay [4] deals with HT29 colon.
For assay [5], the system named is SR leukemia.
In assay [6] the test system is OVCAR-5 ovarian.
Assay [7] has as its system SF-295 CNS.
For assay [8], the system named is NCI-H460 lung.
The test system of assay [9] is SW-620 colon.
Assay [10] has as its system SN12C renal.
The subject of assay [11] is UACC-257 melanoma.
Assay [12] deals with SK-MEL-5 melanoma.
For assay [13], the system named is SNB-75 CNS.
In assay [14] the test system is UO-31 renal.
The test system of assay [15] is DU-145 prostate.
The subject of assay [16] is T-47D breast.

Consider `N/N=c1/nc2n(c3ncccc13)C=CNN2`, for which the TGI in assay [1], in [2], in [3], in assay [4], in assay [5] and in [6] was more than 100 µM in each case. Besides, the TGI in assay [7], in assay [8], in [9], in [10], in assay [11] and in assay [12] was more than 100 µM throughout.

Turning to `O=C1C(Cl)C(c2cccc([N+](=O)[O-])c2)N1n1cnc2ccccc2c1=O` (stereo not drawn), the TGI in assay [13], in [1], in assay [2], in assay [3], in [4] and in assay [5] was more than 100 µM throughout. Further, the TGI in [6], in assay [7], in [8], in assay [9], in assay [10] and in assay [11] was more than 100 µM in each case. Also, the TGI in [14] and in assay [12] was more than 100 µM each time.

On to `CCCCCCCCCCCCCCCCOCC(COP(=O)(O)OCC1OC(n2cc(CC)c(=O)[nH]c2=O)CC1O)OC(=O)CCCCCCCCCCCCCCC` (stereo not drawn), for which the TGI in assay [13], in [1], in assay [15], in assay [16], in assay [2] and in assay [3] was more than 100 µM throughout. In addition, the TGI in assay [4], in assay [5], in assay [6], in assay [7], in assay [9] and in assay [10] was more than 100 µM in each case. Further, the TGI in assay [11] and in assay [14] was more than 100 µM in each case.

As for `CCN(CC)C(=O)CCn1ccc(=O)[nH]c1=O`, the TGI in [13], in [1], in assay [2], in assay [3], in [4] and in assay [5] was more than 100 µM throughout. Moreover, the TGI in assay [6], in assay [7], in assay [8], in assay [9], in assay [10] and in assay [14] was more than 100 µM each time. Further, in [12], the TGI was more than 100 µM.

Turning to `O=C(Cc1ccccc1)NN1C(=O)C(Cl)C1c1ccc(Cl)cc1` (stereo not drawn), the TGI in assay [13], in [1], in [2], in assay [3], in [4] and in assay [5] was more than 100 µM throughout. Further, the TGI in assay [6], in [7], in assay [8], in assay [9], in [10] and in assay [11] was more than 100 µM throughout. The TGI in assay [14] and in assay [12] was more than 100 µM throughout.

Consider `Nc1ccccc1N`, for which the TGI in assay [13], in assay [1], in assay [2], in [3], in assay [4] and in assay [5] was more than 100 µM in each case. The TGI in assay [6], in [7], in assay [8], in [9], in assay [10] and in assay [14] was more than 100 µM throughout. The molecule also had a TGI in [12] of more than 100 µM.

`CC(=O)CCC#Cc1ccccc1C(=O)C(C)=[N+]=[N-]`: the TGI in assay [13] was 69.2 µM; in assay [1] it was more than 100 µM; in assay [3], more than 100 µM; in [4], more than 100 µM; in [6], more than 100 µM; in assay [7] it was more than 100 µM. Moreover, the TGI in [8] was more than 100 µM; in assay [9], more than 100 µM; in assay [10], more than 100 µM; in assay [11] it was more than 100 µM; in assay [14], more than 100 µM; in [12], 33.1 µM.

Consider `C/C(=N/NC(=O)c1ccccc1S(N)(=O)=O)C(CN1CCCCC1)C(C1=C(O)C2C=CC=CC2OC1=O)c1ccccc1` (stereo not drawn), for which the TGI was more than 100 µM in [13]; more than 100 µM in assay [1]; more than 100 µM in assay [2]; more than 100 µM in assay [3]; more than 100 µM in assay [4]; 61.8 µM in assay [5]. The TGI in assay [6], in assay [7], in [8], in assay [9], in [10] and in assay [11] was more than 100 µM throughout. Further, the TGI in assay [14] and in assay [12] was more than 100 µM throughout.

As for `NCCCCCC(CCN)SCC1OC(n2cnc3c(N)ncnc32)C(O)C1O` (stereo not drawn), the TGI in assay [13], in [1], in assay [3], in assay [4], in assay [6] and in [7] was more than 1500 µM in each case. Further, the TGI was more than 1500 µM in [8]; more than 1500 µM in [9]; more than 1180 µM in assay [10]; more than 1500 µM in assay [11]; more than 1320 µM in assay [14]; more than 1500 µM in assay [12].

On to `O=C1c2cc(Br)ccc2-c2ccc3c4ccc5c6c(ccc(c7ccc1c2c73)c64)C(=O)c1cc(Br)ccc1-5`, for which the TGI in assay [1], in assay [15], in assay [16], in assay [2], in assay [3] and in [4] was more than 100 µM throughout. Moreover, the TGI in [5], in assay [6], in assay [8], in assay [9], in assay [10] and in assay [11] was more than 100 µM each time. Also, the TGI in assay [14] and in assay [12] was more than 100 µM each time.

For the molecule `C/C(=N/NC(=O)c1ccncc1)C(F)(F)F`, the TGI in assay [13], in assay [1], in assay [15], in assay [16], in assay [3] and in assay [4] was more than 100 µM throughout. Moreover, the TGI in [5], in assay [6], in [7], in assay [10], in assay [14] and in assay [12] was more than 100 µM each time.

In the case of `CCOc1ccc(/C=C2\N=C(c3ccccc3)OC2=O)cc1`, the TGI in assay [13], in [1], in assay [3], in assay [4], in assay [5] and in assay [6] was more than 100 µM throughout. In addition, the TGI in assay [7], in assay [8], in [9], in [11], in assay [14] and in assay [12] was more than 100 µM throughout.

For the molecule `COCCN(C(=O)c1ccccc1)C1CCC2(SCCS2)c2[nH]c3ccccc3c21` (stereo not drawn), the TGI in [13], in assay [1], in assay [15], in assay [2], in assay [4] and in [5] was more than 100 µM in each case. The TGI in assay [6], in assay [7], in [8], in [9], in assay [10] and in assay [11] was more than 100 µM in each case. The TGI in assay [14] and in [12] was more than 100 µM in each case.

Consider `C=C=C[P+](c1ccccc1)(c1ccccc1)c1ccccc1`, for which the TGI in assay [13] was determined as 44.9 µM; in assay [1], 14.3 µM; in assay [2], 17.7 µM; in [3], 26.5 µM; in [5] it was 60.8 µM; in assay [8], 45.7 µM. Further, the TGI in assay [10] is 17.8 µM; in [11] it was 39.5 µM; in [14] it was more than 100 µM; in [12] it was 23.3 µM.

Regarding `O=C(O)CN1CCSc2ccccc2CN(CC(=O)O)CCSc2ccccc2C1`, the TGI in [13] was more than 100 µM; in assay [1], more than 100 µM; in assay [2], more than 100 µM; in assay [3], more than 100 µM; in assay [4], more than 100 µM; in assay [5] it was 84.5 µM. Further, the TGI in assay [6], in assay [7], in assay [8], in [9], in assay [10] and in [11] was more than 100 µM in each case. The TGI in assay [14] and in assay [12] was more than 100 µM throughout.

As to `NC(N)=N/N=C\c1c(-c2cccc([N+](=O)[O-])c2)nc2sccn12`, the TGI is 20.8 µM in assay [15]; 4.18 µM in [16]; more than 100 µM in assay [2]; 6.49 µM in assay [3]; 4.23 µM in [4]; more than 100 µM in assay [6]. For the same molecule, the TGI in assay [7] turned out to be 5.86 µM; in assay [8], 78.7 µM; in assay [9], 5.43 µM; in assay [10], 4.89 µM; in [11] it was 48.8 µM; in assay [14], 37.7 µM. In [12], this molecule showed a TGI of 36.1 µM.

As for `CN1C2CCC1/C(=C/c1cccc3c1OCO3)C(=O)/C2=C\c1cccc2c1OCO2`, the TGI was 49.7 µM in assay [13]; 63.4 µM in assay [1]; more than 100 µM in [3]; more than 100 µM in assay [4]; more than 100 µM in assay [5]; more than 100 µM in [6]. Besides, the TGI in assay [7] is 84.6 µM; in assay [8], more than 100 µM; in assay [9], more than 100 µM; in assay [10], more than 100 µM; in [11], more than 100 µM; in [14], more than 100 µM. In assay [12], this molecule returned a TGI of more than 100 µM.

With `C=C(Br)C(C)(Cl)CCC(Br)C(C)(C)Br` (stereo not drawn), the TGI was more than 100 µM in assay [13]; more than 100 µM in assay [1]; more than 100 µM in assay [2]; 80.4 µM in [3]; more than 100 µM in [4]; 51.9 µM in assay [5]. The TGI in assay [6], in assay [7], in assay [8], in assay [9], in assay [10] and in assay [11] was more than 100 µM in each case. For the same molecule, the TGI in [14] and in [12] was more than 100 µM each time.

Take `CC1(C)CNC(=O)C2(CCCO2)CNC(C)(C)CNC(=O)C2(CCCO2)CN1` (stereo not drawn): the TGI in [13], in assay [1], in [15], in assay [16], in assay [2] and in assay [4] was more than 10 µM throughout. The TGI in [5], in assay [6], in assay [7], in assay [9], in assay [10] and in [11] was more than 10 µM in each case. In assay [12], this molecule registered a TGI of more than 10 µM.

Take `CCOC(=O)CC1=N/C(=N/C(=N)N[N+](=O)[O-])SC1`: the TGI in assay [13], in assay [1], in assay [2], in [3], in assay [4] and in [6] was more than 100 µM each time. Moreover, the TGI in [7], in assay [8], in assay [9], in [10], in assay [11] and in [14] was more than 100 µM in each case. The molecule further showed a TGI in assay [12] of more than 100 µM.

As to `COc1cccc2c1C(=O)c1c(O)c3c(c(O)c1C2=O)C[C@@](O)(C(=O)CO)CC3OC1CC(N(C)CCOCC(OC(C)=O)OC(C)=O)C(O)C(C)O1` (stereo partly drawn), the TGI in [13], in assay [1], in assay [2], in assay [3], in [4] and in assay [6] was more than 0.01 µM each time. Also, the TGI in assay [7], in assay [8], in assay [9], in assay [10], in [11] and in assay [14] was more than 0.01 µM throughout. In assay [12], the TGI is more than 0.01 µM.
